Reference: patent US6399568B1, “Cyclic tetrapeptide derivatives and medicinal use thereof” (Japan Energy Corporation, priority 1997, dated 2002)
Non-standard residues stand in square brackets, D forms with d. Residues, ends and D or L forms follow the SMILES beside them. ξ: configuration not given here. *: point of attachment. d1Nal = N[C@H](Cc1cccc2ccccc12)C(=O)O; Asu = N[C@@H](CCCCCC(=O)O)C(=O)O; dTic = O=C(O)[C@H]1Cc2ccccc2CN1; Ile(3ξ) = CCC(C)[C@H](N)C(=O)O; Pip = O=C(O)[C@@H]1CCCCN1; dPip = O=C(O)[C@H]1CCCCN1; BrAc = O=C(CBr)*; Sar = CNCC(=O)O; For = O=C*; NHOH = ON*

Experiments:
B16/BL6 cells = experiment: MHC class-I molecule expression promoting activity; format: cell-based, mouse; conditions: for MHC class-I molecule expression promoting activity: allowed to act on animal cells (summary statement); for conc. for 2-fold expression (nM) mean: mean of a plurality of assays
Method: The cancer cells used were mouse melanoma cells, B16/BL6 cells, provided by, the National Cancer Institute, U.S.A. Said cells were cultivated in MEM media supplemented with 10% FBS at 37° C. in the presence of 5% carbon dioxide in an humidified incubator.
A compound to be tested was preliminarily dissolved in dimethyl sulfoxide (DMSO) and adjusted to a concentration of 100 mM or 10 mM (source solution).
Said B16/BL6 cells were inoculated on 96 well microplate at a cell density of 5000 cells per well, each well containing 200 μl of said medium. […] Thereafter, each well was once washed with PBS (phosphate buffered saline) and floating cells and the medium were removed. Then, the well was treated with 0.1% glutaraldehyde solution for 3 minutes to fix the cells.
The amount of MHC class-I molecule expressed on the surface of the fixed cells was measured by the following method. Anti-H-2K^bD^bD^d antibody, which is an antibody against mouse MHC classI molecule (commercially available from Meiji Milk Co., Ltd), was used as a primary antibody, biotinylated anti-mouse IgG+M (commercially available from Chemicon) was used as a secondary antibody, and streptavidin-β-galactosidase conjugate (commercially available from BRL) was reacted as a labelling enzyme. The amount of the thus labelled enzyme β-galactosidase was measured in a microplate reader by recording the fluorescent intensity (excitation: 365 nm, fluorescence: 450 nm) derived from the enzymaticreaction product using 4-methylumbelliferyl-β-D-galactoside (commercially available from Nacalai Tesque) as a substrate. […] The value obtained by subtracting said background level from the, actually measured value (an apparent value including the background level) was the true measurement reflecting the amount of expressed MHC class-I molecule.
A group without the addition of any compound to be tested was used as a reference group and the measurement of MHC class-I molecule expressed in said group was used as a standard value. The amount of MHC class-I molecule expressed at a concentration of addition of each test compound is shown as a relative amount, said standard value taken as one (1). For each compound to be tested, various concentrations of addition were selected to investigate the dependency of MHC class-I molecule expression promoting action on the concentration of addition.

histone deacetylase = experiment: Histone deacetylase enzyme inhibiting activity, synthetic peptide substrate; format: biochemical, mouse; conditions: enzyme from B16/BL6 cells; [3H]acetylated histone H4 peptide; 37° C. 3 hours
Method: The preparation of histone deacetylase was performed essentially according to the method of Yoshida et al. (J. Biol. Chem., 265,17174-17179, 1990). The enzyme to be used was partially purified from B16/BL6 cells. The cells were suspended in HDA buffer (15 mM potassium phosphate, 5% glycerol, 0.2 mM EDTA, […], pH 7.5), homogenized and centrifuged (2500×g, 10 min) to collect the nuclei, which in turn were homogenized in the same buffer containing 1 M (NH4)2SO4. After ultrasonic disruption and centrifugation, the concentration of (NH4)2SO4 in the collected supernatant was increased to 3.5 M to precipitate histone deacetylase. This precipitate was redissolved in HDA buffer, subjected to gel filtration to replace the solvent with HDA buffer, and used as a crude histone deacetylase enzyme solution.
As a substrate, a synthetic substrate peptide, [^3H]acetylated histone H4 peptide was used. This [^3H]acetylated histone H4 peptide was obtained by synthesizing the N-terminal peptide of histone H4; […] (the C-terminal being cysteine) and radio-acetylating with ^3H -acetic anhydride.
An assay was performed by incubating the synthetic substrate solution and the enzyme solution at 37° C. for 3 hours in the presence of a compound to be tested (reaction volume, 100 μl). The reaction was stopped by adding 25 μl of 1 M HCl and 0.2 M acetic acid and [^3H]acetate excised by the enzyme reaction was extracted with ethyl acetate for radioactivity measurement. As a control group, the same procedure was repeated without addition of any test compound to the reaction system. The inhibiting activity was expressed by a concentration at which the histone deacetylase enzyme activity in the control group was inhibited by 50% (50% inhibiting concentration).

Row | Compound | conc. for 2-fold expression (nM) mean (B16/BL6 cells; 72 hours) | further results
1 | CC(/C=C/C(=O)NO[C@@H]1O[C@H](CO)[C@@H](O)[C@H](O)[C@H]1O)=C\[C@@H](C)C(=O)c1ccc(N(C)C)cc1 [trichostatin C, reference compound] | 6.88 nM | MHC class-I molecule expression promoting activity (B16/BL6 cells): promotes the expression of MHC class-I molecule
2 | O=C(O)c1ccccc1 [benzoic acid, reference compound] | >200000 nM | 
3 | CCCC(=O)O [butyric acid, reference compound] |  | MHC class-I molecule expression promoting activity (B16/BL6 cells): exhibit the MHC class-I molecule expression promoting activity
4 | cyclo(-Asu(NHOH)-Phe-Phe-D-Pro-)2 [HDA-19, reference compound] | weak | MHC class-I molecule expression promoting action (B16/BL6 cells; FIGS. 3 and 4, dependence on concentration of addition): low MHC class-I molecule expression promoting action was observed only at a high concentration of addition; Twice Promoting Concentration Cx2 (B16/BL6 cells; concentration at which MHC class-I expression is twice that without addition, 72 hours): >40 µM
5 | CCC(C)[C@@H]1NC(=O)[C@@H](Cc2ccc3ccc4cccc5ccc2c3c45)NC(=O)[C@H](CCCCCC(=O)NO)NC(=O)[C@H]2CCCN2C1=O (stereo partly drawn) [HDA-48, cyclo(-L-Asu(NHOH)-D-Pya-L-Ile-D-Pro-)] | 0.846 nM | 
6 | CCC(C)[C@@H]1NC(=O)[C@@H](Cc2cccc3ccccc23)NC(=O)[C@H](CCCCCC(=O)NO)NC(=O)[C@H]2CCCN2C1=O (stereo partly drawn) [HDA-47, cyclo(-L-Asu(NHOH)-D-Naf-L-Ile-D-Pro-)] (cyclo([Asu](NHOH)[d1Nal][Ile(3ξ)][dP])) | 9.59 nM | 
7 | CC(C)C[C@@H]1NC(=O)[C@H](Cc2c[nH]c3ccccc23)NC(=O)[C@H](CCCCCC(=O)NO)NC(=O)[C@H]2CCCCN2C1=O [HDA-33, cyclo(-L-Asu(NHOH)-L-Trp-L-Leu-D-Pip-)] (cyclo([Asu](NHOH)WL[dPip])) | weak | 
8 | CCC(C)[C@@H]1NC(=O)[C@@H](Cc2ccc(OC)cc2)NC(=O)[C@H](CCCCCCC(=O)NO)NC(=O)[C@H]2CCCN2C1=O (stereo partly drawn) [HDA-43, cyclo(-L-Aaz(NHOH)-D-Tyr(Me)-L-Ile-D-Pro-)] | 155 nM | IC50 (histone deacetylase): 33.9 nM
9 | O=C(CCCCC[C@@H]1NC(=O)[C@@H]2CCCN2C(=O)[C@@H](Cc2ccccc2)NC(=O)[C@H](Cc2ccccc2)NC1=O)NO [HDA-39, cyclo(-L-Asu(NHOH)-L-Phe-D-Phe-L-Pro-)] (cyclo([Asu](NHOH)F[dF]P)) | 65800 nM | IC50 (histone deacetylase): 226 nM
10 | O=C(CCCCCc1ccccc1)NO [Ph-(CH2)5-CONHOH, reference compound] | 11400 nM | 
11 | CCC(C)[C@@H]1NC(=O)[C@@H](Cc2ccccc2)NC(=O)[C@H](CCCCCC(=O)NO)NC(=O)[C@H]2CCCN2C1=O (stereo partly drawn) [HDA-46, cyclo(-L-Asu(NHOH)-D-Phe-L-Ile-D-Pro-)] (cyclo([Asu](NHOH)[dF][Ile(3ξ)][dP])) | 1.96 nM | 
12 | COc1ccc(C[C@H]2NC(=O)[C@H](CCCCCC(=O)NO)NC(=O)[C@H]3CCCN3C(=O)[C@H](C)NC2=O)cc1 [HDA-44, cyclo(-L-Asu(NHOH)-D-Tyr(Me)-L-Ala-D-Pro-)] (cyclo(A[dP][Asu](NHOH)[dY](Me))) | 35.00 nM | 
13 | cyclo(-L-Asu(NHOH)-D-Tyr(Me)-L-Ile-L-Pro-)2 [HDA-14, reference compound] | >10000 nM | 
14 | cyclo(-Asu(NHOH)-D-Phe-Phe-Sar-) [CHAP41] | 24.5 nM | 
15 | CC(=O)NC(CCCCCC(=O)NO)C(=O)NCc1ccccc1 (centres unmarked) [Ac-Asu(NHOH)-NH-Bzl, reference compound] | 2410 nM | 
16 | O=C(NO)c1cccnc1 [nicotinic acid hydroxamate, reference compound] | 28000 nM | 
17 | O=C(CBr)NCCCC[C@@H]1NC(=O)[C@H]2CCCN2C(=O)[C@H](Cc2ccccc2)NC(=O)[C@H](Cc2ccccc2)NC1=O [HDA-26, cyclo(-L-Lys(BrAc)-L-Phe-L-Phe-D-Pro-)] (cyclo(FF[dP]K(BrAc))) | 5660 nM | 
18 | C[C@@H]1NC(=O)[C@@H](Cc2ccccc2)NC(=O)[C@H](CCCCCC(=O)NO)NC(=O)[C@H]2CCCN2C1=O [HDA-45, cyclo(-L-Asu(NHOH)-D-Phe-L-Ala-D-Pro-)] (cyclo(A[dP][Asu](NHOH)[dF])) | 23.1 nM | 
19 | O=C(CCCCC[C@@H]1NC(=O)[C@@H]2CCCN2C(=O)[C@H](Cc2ccccc2)NC(=O)[C@@H](Cc2ccccc2)NC1=O)NO [HDA-38, cyclo(-L-Asu(NHOH)-D-Phe-L-Phe-L-Pro-)] (cyclo([Asu](NHOH)[dF]FP)) | 558 nM | IC50 (histone deacetylase): 5.32 nM
20 | O=C(CCCCC[C@@H]1NC(=O)[C@@H](Cc2ccccc2)NC(=O)[C@H](Cc2ccccc2)NC(=O)[C@H]2CCCN2C1=O)NO [HDA-37, cyclo(-L-Asu(NHOH)-D-Pro-L-Phe-D-Phe-)] (cyclo([Asu](NHOH)[dP]F[dF])) | 320 nM | IC50 (histone deacetylase): 9.16 nM
21 | CCC(C)[C@@H]1NC(=O)[C@@H](Cc2ccc(OC)cc2)NC(=O)[C@H](CCCCC(=O)NO)NC(=O)[C@H]2CCCN2C1=O (stereo partly drawn) [HDA-42, cyclo(-L-Api(NHOH)-D-Tyr(Me)-L-Ile-D-Pro-)] | 512 nM | IC50 (histone deacetylase): 53.8 nM
22 | O=C(NO)c1ccccc1 [benzohydroxamic acid, reference compound] | 35800 nM | 
23 | CC(C)C[C@@H]1NC(=O)[C@@H](Cc2ccccc2)NC(=O)[C@H](CCCCCC(=O)NO)NC(=O)[C@@H]2CCCCN2C1=O [HDA-53, cyclo(-L-Asu(NHOH)-D-Phe-L-Leu-L-Pip-)] (cyclo([Asu](NHOH)[dF]L[Pip])) | 19.8 nM | 
24 | cyclo (-L-Lys(Ac)L-Phe-L-Phe-D-Pro-)2 [HDA-7, reference compound] | 75000 nM | 
25 | O=C(O)c1cccnc1 [nicotinic acid, reference compound] | >1000000 nM | 
26 | CN1CC(=O)N[C@@H](CCCCCC(=O)NO)C(=O)N[C@@H](Cc2ccccc2)C(=O)N[C@@H](Cc2ccccc2)C1=O [HDA-40, cyclo(-L-Asu(NHOH)-L-Phe-L-Phe-Sar-)] (cyclo([Asu](NHOH)FF[Sar])) | 748 nM | 
27 | CC[C@H](C)[C@@H]1NC(=O)[C@@H](Cc2ccc(OC)cc2)NC(=O)[C@H](CCCCCC(=O)NO)NC(=O)[C@H]2Cc3ccccc3CN2C1=O [HDA-52, cyclo(-L-Asu(NHOH)-D-Tyr(Me)-L-Ile-D-Tic-)] (cyclo([Asu](NHOH)[dY](Me)I[dTic])) | 0.191 nM | IC50 (histone deacetylase): 4.35 nM
28 | NC(=O)c1cccnc1 [nicotinamide, reference compound] | >1000000 nM | 
29 | CC(C)C[C@@H]1NC(=O)[C@H](Cc2cn(C=O)c3ccccc23)NC(=O)[C@H](CCCCCC(=O)NO)NC(=O)[C@H]2CCCCN2C1=O [HDA-16, cyclo(-L-Asu(NHOH)-L-Trp(CHO)-L-Leu-D-Pip-)] (cyclo([Asu](NHOH)W(For)L[dPip])) | toxic | 
